Columns and labels:
[1] = molecular target: Platelet-derived growth factor receptor beta (Homo sapiens) (UniProt P09619); settings: Compound concentration 1000.0 nM
[2] = molecular target: Type-1 angiotensin II receptor (Homo sapiens) (UniProt P30556); experiment: AT1 (h) Eurofins-Cerep binding assay; design: ligand concentration 0.05 nM; settings: filed as antagonist, Compound concentration 10.0 uM
[3] = tested on: Phosphatidylinositol 4,5-bisphosphate 3-kinase catalytic subunit alpha isoform (Homo sapiens), P42336 [I800L]; settings: Compound concentration 1000.0 nM
[4] = molecular target: Cyclin-dependent kinase 4 (Homo sapiens) (UniProt P11802); settings: Compound concentration 1000.0 nM
[5] = molecular target: Glycogen synthase kinase-3 beta (Homo sapiens) (UniProt P49841); settings: Compound concentration 1000.0 nM
[6] = tested on: Mast/stem cell growth factor receptor Kit (Homo sapiens), P10721 [V559D]; settings: Compound concentration 1000.0 nM
[7] = molecular target: G protein-coupled receptor kinase 3 (Homo sapiens) (UniProt P35626); settings: Compound concentration 1000.0 nM
[8] = tested on: Epidermal growth factor receptor (Homo sapiens), P00533 [L858R,T790M]; settings: Compound concentration 1000.0 nM
[9] = tested on: Phosphatidylinositol 4,5-bisphosphate 3-kinase catalytic subunit alpha isoform (Homo sapiens), P42336 [H1047Y]; settings: Compound concentration 1000.0 nM
[10] = molecular target: 5'-AMP-activated protein kinase catalytic subunit alpha-1 (Homo sapiens) (UniProt Q13131); settings: Compound concentration 1000.0 nM
Chain of 5'-AMP-activated protein kinase catalytic subunit alpha-1 (Homo sapiens) (Q13131 whole entry, looked up): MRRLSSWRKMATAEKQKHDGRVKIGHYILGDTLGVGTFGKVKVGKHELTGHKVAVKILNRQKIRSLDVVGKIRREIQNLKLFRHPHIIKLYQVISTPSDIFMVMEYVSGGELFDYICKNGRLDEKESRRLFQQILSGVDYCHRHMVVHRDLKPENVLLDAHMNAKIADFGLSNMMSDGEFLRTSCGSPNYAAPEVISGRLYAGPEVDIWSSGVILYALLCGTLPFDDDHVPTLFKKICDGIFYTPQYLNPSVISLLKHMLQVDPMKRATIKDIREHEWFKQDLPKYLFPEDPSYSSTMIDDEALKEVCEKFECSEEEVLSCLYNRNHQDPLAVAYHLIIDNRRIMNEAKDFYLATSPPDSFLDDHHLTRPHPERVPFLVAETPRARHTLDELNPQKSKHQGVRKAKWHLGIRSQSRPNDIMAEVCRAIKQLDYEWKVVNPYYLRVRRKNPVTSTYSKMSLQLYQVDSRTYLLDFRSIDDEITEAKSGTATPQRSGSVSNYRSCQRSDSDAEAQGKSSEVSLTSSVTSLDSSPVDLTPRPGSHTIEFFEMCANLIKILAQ

[11] = molecular target: Serine/threonine-protein kinase 32B (Homo sapiens) (UniProt Q9NY57); settings: Compound concentration 1000.0 nM
Chain of Serine/threonine-protein kinase 32B (Homo sapiens) (Q9NY57 whole entry): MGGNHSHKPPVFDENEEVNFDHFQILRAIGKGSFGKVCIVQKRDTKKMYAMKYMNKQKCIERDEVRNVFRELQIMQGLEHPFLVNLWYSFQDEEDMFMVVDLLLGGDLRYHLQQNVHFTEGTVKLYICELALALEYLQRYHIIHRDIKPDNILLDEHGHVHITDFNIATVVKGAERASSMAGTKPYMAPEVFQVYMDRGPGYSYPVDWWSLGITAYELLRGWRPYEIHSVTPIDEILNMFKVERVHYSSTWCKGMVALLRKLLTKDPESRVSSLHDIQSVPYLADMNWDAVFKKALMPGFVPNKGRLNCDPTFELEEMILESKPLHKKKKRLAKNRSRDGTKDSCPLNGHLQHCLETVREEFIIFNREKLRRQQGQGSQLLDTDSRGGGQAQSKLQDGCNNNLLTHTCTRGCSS

[12] = molecular target: Histamine H1 receptor (Homo sapiens) (UniProt P35367); experiment: H1 (h) Eurofins-Cerep binding assay; design: ligand concentration 1 nM; settings: filed as antagonist, Compound concentration 10.0 uM
Chain of Histamine H1 receptor (Homo sapiens) (P35367 whole entry): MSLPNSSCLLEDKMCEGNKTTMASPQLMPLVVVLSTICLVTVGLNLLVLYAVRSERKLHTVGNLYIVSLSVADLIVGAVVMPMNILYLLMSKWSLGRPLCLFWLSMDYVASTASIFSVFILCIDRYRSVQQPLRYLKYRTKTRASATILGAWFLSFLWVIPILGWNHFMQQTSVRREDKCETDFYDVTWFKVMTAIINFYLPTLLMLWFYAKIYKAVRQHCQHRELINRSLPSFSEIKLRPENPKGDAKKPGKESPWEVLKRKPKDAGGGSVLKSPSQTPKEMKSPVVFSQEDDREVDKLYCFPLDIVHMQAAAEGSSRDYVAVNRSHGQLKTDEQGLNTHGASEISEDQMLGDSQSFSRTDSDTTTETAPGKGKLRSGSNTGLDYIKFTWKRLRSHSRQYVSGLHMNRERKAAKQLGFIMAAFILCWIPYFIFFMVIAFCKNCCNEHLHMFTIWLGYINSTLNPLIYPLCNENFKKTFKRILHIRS

[13] = molecular target: Cyclin-dependent kinase 11A (Homo sapiens) (UniProt Q9UQ88); settings: Compound concentration 1000.0 nM
Chain of Cyclin-dependent kinase 11A (Homo sapiens) (Q9UQ88 whole entry, canonical isoform): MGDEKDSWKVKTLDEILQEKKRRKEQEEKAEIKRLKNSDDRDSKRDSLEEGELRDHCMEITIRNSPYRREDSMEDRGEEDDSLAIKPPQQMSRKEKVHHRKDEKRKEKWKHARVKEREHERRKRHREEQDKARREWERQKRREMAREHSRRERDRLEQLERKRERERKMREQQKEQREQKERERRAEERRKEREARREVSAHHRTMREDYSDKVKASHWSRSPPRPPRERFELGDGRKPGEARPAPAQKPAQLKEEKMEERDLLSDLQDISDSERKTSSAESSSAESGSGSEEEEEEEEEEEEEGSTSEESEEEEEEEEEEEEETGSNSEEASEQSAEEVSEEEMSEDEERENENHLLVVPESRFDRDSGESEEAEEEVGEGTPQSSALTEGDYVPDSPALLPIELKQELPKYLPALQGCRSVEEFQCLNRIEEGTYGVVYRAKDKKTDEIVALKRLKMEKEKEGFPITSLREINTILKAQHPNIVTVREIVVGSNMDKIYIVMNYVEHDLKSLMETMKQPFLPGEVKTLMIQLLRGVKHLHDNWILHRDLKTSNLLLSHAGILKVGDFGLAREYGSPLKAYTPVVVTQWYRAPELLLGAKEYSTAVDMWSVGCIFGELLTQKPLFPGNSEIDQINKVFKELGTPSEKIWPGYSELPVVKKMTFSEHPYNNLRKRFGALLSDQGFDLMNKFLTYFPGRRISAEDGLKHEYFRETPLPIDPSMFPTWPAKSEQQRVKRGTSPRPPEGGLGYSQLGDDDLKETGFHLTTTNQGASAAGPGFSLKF

[14] = molecular target: Casein kinase I isoform gamma-2 (Homo sapiens) (UniProt P78368); settings: Compound concentration 1000.0 nM
[15] = molecular target: Dual specificity mitogen-activated protein kinase kinase 4 (Homo sapiens) (UniProt P45985); settings: Compound concentration 1000.0 nM
[16] = molecular target: Casein kinase II subunit alpha (Homo sapiens) (UniProt P68400); settings: Compound concentration 1000.0 nM
[17] = molecular target: Neuropeptide Y receptor type 1 (Homo sapiens) (UniProt P25929); experiment: Y1 (h) Eurofins-Cerep binding assay; design: ligand concentration 0.025 nM; settings: filed as agonist, Compound concentration 10.0 uM
Chain of Neuropeptide Y receptor type 1 (Homo sapiens) (P25929 whole entry): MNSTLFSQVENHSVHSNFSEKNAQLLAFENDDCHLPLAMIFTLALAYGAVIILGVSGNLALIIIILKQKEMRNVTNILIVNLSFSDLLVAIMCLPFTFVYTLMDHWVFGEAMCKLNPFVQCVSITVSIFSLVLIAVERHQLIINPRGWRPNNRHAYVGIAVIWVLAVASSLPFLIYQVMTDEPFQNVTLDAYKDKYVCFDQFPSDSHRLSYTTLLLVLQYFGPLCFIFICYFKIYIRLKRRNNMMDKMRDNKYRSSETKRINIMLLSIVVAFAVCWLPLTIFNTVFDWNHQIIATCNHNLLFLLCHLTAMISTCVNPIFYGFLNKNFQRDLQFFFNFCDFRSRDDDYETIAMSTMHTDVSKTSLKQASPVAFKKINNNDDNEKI

[18] = molecular target: Receptor-interacting serine/threonine-protein kinase 4 (Homo sapiens) (UniProt P57078); settings: Compound concentration 1000.0 nM
Chain of Receptor-interacting serine/threonine-protein kinase 4 (Homo sapiens) (P57078 whole entry): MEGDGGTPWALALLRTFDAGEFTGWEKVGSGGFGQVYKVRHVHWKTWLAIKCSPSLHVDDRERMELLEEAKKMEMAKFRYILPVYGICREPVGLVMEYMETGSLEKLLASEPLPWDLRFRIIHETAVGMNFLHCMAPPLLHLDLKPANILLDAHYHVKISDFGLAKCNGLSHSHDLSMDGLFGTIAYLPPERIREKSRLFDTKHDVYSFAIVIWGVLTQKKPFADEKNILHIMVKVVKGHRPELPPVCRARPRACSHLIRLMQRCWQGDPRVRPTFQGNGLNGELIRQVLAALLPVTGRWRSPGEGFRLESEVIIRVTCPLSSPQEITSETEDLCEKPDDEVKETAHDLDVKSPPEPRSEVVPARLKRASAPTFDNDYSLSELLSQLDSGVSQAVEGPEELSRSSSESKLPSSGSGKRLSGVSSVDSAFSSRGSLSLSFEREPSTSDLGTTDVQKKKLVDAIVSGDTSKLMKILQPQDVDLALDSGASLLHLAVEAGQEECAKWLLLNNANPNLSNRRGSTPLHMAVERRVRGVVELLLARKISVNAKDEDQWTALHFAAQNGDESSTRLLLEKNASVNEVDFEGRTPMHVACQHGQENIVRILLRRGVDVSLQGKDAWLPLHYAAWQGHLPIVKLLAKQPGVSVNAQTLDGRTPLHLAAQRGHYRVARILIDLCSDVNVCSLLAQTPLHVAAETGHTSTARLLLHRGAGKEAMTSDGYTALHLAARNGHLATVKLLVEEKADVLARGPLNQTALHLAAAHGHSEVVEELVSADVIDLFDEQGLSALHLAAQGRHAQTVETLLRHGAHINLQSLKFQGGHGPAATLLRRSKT

[19] = molecular target: Ephrin type-B receptor 4 (Homo sapiens) (UniProt P54760); settings: Compound concentration 1000.0 nM
[20] = molecular target: Tyrosine-protein kinase Yes (Homo sapiens) (UniProt P07947); settings: Compound concentration 1000.0 nM
[21] = molecular target: Tyrosine-protein kinase JAK1 (Homo sapiens) (UniProt P23458); settings: Compound concentration 1000.0 nM
[22] = molecular target: Kappa-type opioid receptor (Homo sapiens) (UniProt P41145); experiment: kappa (h) (KOP) Eurofins-Cerep binding assay; design: ligand concentration 0.5 nM; settings: filed as agonist, Compound concentration 10.0 uM
[23] = molecular target: Serine/threonine-protein kinase STK11 (Homo sapiens) (UniProt Q15831); settings: Compound concentration 1000.0 nM
[24] = tested on: Epidermal growth factor receptor (Homo sapiens), P00533 [UNDEFINED MUTATION]; settings: Compound concentration 1000.0 nM
[25] = molecular target: Casein kinase I isoform gamma-3 (Homo sapiens) (UniProt Q9Y6M4); settings: Compound concentration 1000.0 nM
[26] = molecular target: Atypical kinase COQ8A, mitochondrial (Homo sapiens) (UniProt Q8NI60); settings: Compound concentration 1000.0 nM
[27] = tested on: Phosphatidylinositol 4,5-bisphosphate 3-kinase catalytic subunit alpha isoform (Homo sapiens), P42336 [Q546K]; settings: Compound concentration 1000.0 nM
Chain of Phosphatidylinositol 4,5-bisphosphate 3-kinase catalytic subunit alpha isoform (Homo sapiens), P42336 [Q546K] (P42336 whole entry Q546K, canonical isoform): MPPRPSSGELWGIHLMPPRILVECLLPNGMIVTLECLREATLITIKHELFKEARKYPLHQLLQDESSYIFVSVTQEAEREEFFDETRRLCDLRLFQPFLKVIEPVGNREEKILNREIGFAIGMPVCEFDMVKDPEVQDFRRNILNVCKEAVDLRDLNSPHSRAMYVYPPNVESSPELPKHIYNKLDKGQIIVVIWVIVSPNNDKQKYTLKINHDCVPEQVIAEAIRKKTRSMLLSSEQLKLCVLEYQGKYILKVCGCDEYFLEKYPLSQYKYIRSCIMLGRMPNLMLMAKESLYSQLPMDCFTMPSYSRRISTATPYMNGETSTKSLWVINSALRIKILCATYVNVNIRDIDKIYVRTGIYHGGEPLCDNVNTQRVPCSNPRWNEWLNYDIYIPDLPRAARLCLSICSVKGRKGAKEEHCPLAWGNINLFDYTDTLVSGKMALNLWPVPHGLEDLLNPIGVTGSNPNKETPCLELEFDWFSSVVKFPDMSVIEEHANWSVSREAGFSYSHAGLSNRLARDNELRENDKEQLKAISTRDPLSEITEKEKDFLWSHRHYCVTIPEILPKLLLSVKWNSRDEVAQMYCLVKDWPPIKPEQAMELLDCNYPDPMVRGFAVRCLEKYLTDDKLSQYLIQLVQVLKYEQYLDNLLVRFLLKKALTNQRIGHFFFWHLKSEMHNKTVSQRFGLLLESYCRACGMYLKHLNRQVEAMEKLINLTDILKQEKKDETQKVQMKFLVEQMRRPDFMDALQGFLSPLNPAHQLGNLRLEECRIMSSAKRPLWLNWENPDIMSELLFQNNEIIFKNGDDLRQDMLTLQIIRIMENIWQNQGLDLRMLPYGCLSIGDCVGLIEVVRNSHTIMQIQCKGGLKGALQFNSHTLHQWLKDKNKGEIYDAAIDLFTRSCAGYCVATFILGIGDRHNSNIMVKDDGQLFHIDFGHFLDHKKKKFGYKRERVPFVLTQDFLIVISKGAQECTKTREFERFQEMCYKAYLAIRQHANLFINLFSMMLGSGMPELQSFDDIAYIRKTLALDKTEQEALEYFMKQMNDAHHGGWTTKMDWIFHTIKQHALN

[28] = molecular target: Insulin-like growth factor 1 receptor (Homo sapiens) (UniProt P08069); settings: Compound concentration 1000.0 nM
[29] = molecular target: BDNF/NT-3 growth factors receptor (Homo sapiens) (UniProt Q16620); settings: Compound concentration 1000.0 nM
[30] = molecular target: Mitogen-activated protein kinase 9 (Homo sapiens) (UniProt P45984); settings: Compound concentration 1000.0 nM
[31] = molecular target: Serine/threonine-protein kinase pim-2 (Homo sapiens) (UniProt Q9P1W9); settings: Compound concentration 1000.0 nM
[32] = molecular target: Myosin-IIIb (Homo sapiens) (UniProt Q8WXR4); settings: Compound concentration 1000.0 nM
[33] = molecular target: Glycogen synthase kinase-3 alpha (Homo sapiens) (UniProt P49840); settings: Compound concentration 1000.0 nM
Chain of Glycogen synthase kinase-3 alpha (Homo sapiens) (P49840 2-483 limits assumed): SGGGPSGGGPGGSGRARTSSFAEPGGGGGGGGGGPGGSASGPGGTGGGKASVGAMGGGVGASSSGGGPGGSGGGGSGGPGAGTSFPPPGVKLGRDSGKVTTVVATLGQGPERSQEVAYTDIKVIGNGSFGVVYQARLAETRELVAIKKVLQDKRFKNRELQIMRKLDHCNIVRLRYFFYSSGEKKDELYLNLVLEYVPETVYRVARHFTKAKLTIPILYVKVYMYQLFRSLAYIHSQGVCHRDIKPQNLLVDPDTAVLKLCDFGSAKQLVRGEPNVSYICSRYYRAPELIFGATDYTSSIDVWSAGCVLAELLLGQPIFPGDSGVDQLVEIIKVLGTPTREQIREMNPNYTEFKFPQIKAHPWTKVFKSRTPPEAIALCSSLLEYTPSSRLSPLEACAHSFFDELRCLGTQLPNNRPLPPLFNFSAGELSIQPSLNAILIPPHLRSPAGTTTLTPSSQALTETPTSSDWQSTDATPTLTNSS

[34] = molecular target: Tyrosine-protein kinase ZAP-70 (Homo sapiens) (UniProt P43403); settings: Compound concentration 1000.0 nM
[35] = molecular target: Tyrosine-protein kinase receptor TYRO3 (Homo sapiens) (UniProt Q06418); settings: Compound concentration 1000.0 nM
[36] = tested on: Serine/threonine-protein kinase B-raf (Homo sapiens), P15056 [V600E]; settings: Compound concentration 1000.0 nM
[37] = molecular target: Citron Rho-interacting kinase (Homo sapiens) (UniProt O14578); settings: Compound concentration 1000.0 nM
[38] = molecular target: Tyrosine-protein kinase Fes/Fps (Homo sapiens) (UniProt P07332); settings: Compound concentration 1000.0 nM
[39] = molecular target: Angiotensin-converting enzyme (Homo sapiens) (UniProt P12821); experiment: ACE (h) Eurofins-Cerep enzyme and uptake assay; settings: Compound concentration 10.0 uM
[40] = molecular target: Mitogen-activated protein kinase 3 (Homo sapiens) (UniProt P27361); settings: Compound concentration 1000.0 nM
[41] = tested on: Mast/stem cell growth factor receptor Kit (Homo sapiens), P10721 [A829P]; settings: Compound concentration 1000.0 nM
[42] = molecular target: Protein kinase C epsilon type (Homo sapiens) (UniProt Q02156); settings: Compound concentration 1000.0 nM
[43] = molecular target: Megakaryocyte-associated tyrosine-protein kinase (Homo sapiens) (UniProt P42679); settings: Compound concentration 1000.0 nM
[44] = tested on: Tyrosine-protein kinase ABL1 (Homo sapiens), P00519 [Q252H]; settings: Compound concentration 1000.0 nM
[45] = molecular target: Fibroblast growth factor receptor 1 (Homo sapiens) (UniProt P11362); settings: Compound concentration 1000.0 nM

## CCCOc1ccc([C@H]2[C@H](C(=O)O)[C@@H](c3ccc4c(c3)OCO4)CN2CC(=O)Nc2c(CC)cccc2CC)cc1 [A-192621]
[1]
  residual activity: 100%
[2]
  % Inhibition of Control Specific Binding (Mean n=2): 1.5%
[3]
  residual activity: 81%
[4]
  residual activity: 100%
[5]
  residual activity: 73%
[6]
  residual activity: 87%
[7]
  residual activity: 73%
[8]
  residual activity: 75%
[9]
  residual activity: 78%
[10]
  residual activity: 100%
[11]
  residual activity: 100%
[12]
  % Inhibition of Control Specific Binding (Mean n=2): -4.4%
[13]
  residual activity: 98%
[14]
  residual activity: 100%
[15]
  residual activity: 80%
[16]
  residual activity: 69%
[17]
  % Inhibition of Control Specific Binding (Mean n=2): -9.3%
[18]
  residual activity: 69%
[19]
  residual activity: 100%
[20]
  residual activity: 99%
[21]
  residual activity: 95%
[22]
  % Inhibition of Control Specific Binding (Mean n=2): 31.9%
[23]
  residual activity: 88%
[24]
  residual activity: 100%
[25]
  residual activity: 100%
[26]
  residual activity: 100%
[27]
  residual activity: 69%
[28]
  residual activity: 89%
[29]
  residual activity: 85%
[30]
  residual activity: 65%
[31]
  residual activity: 91%
[32]
  residual activity: 66%
[33]
  residual activity: 86%
[34]
  residual activity: 50%
[35]
  residual activity: 100%
[36]
  residual activity: 76%
[37]
  residual activity: 83%
[38]
  residual activity: 96%
[39]
  % Inhibition of Control Values (Mean n=2): -12.6%
[40]
  residual activity: 93%
[41]
  residual activity: 63%
[42]
  residual activity: 74%
[43]
  residual activity: 83%
[44]
  residual activity: 61%
[45]
  residual activity: 100%

## CCCOc1ccc([C@@H]2[C@@H](C(=O)O)[C@H](c3ccc4c(c3)OCO4)CN2CC(=O)Nc2c(CC)cccc2CC)cc1 [A-1806262]
[1]
  residual activity: 100%
[2]
  % Inhibition of Control Specific Binding (Mean n=2): -3.8%
[3]
  residual activity: 71%
[4]
  residual activity: 84%
[5]
  residual activity: 100%
[6]
  residual activity: 93%
[7]
  residual activity: 100%
[8]
  residual activity: 87%
[9]
  residual activity: 100%
[10]
  residual activity: 96%
[11]
  residual activity: 100%
[12]
  % Inhibition of Control Specific Binding (Mean n=2): -10%
[13]
  residual activity: 100%
[14]
  residual activity: 96%
[15]
  residual activity: 83%
[16]
  residual activity: 100%
[17]
  % Inhibition of Control Specific Binding (Mean n=2): -5.6%
[18]
  residual activity: 100%
[19]
  residual activity: 96%
[20]
  residual activity: 90%
[21]
  residual activity: 100%
[22]
  % Inhibition of Control Specific Binding (Mean n=2): 54.1%
[23]
  residual activity: 100%
[24]
  residual activity: 100%
[25]
  residual activity: 100%
[26]
  residual activity: 100%
[27]
  residual activity: 80%
[28]
  residual activity: 88%
[29]
  residual activity: 100%
[30]
  residual activity: 80%
[31]
  residual activity: 99%
[32]
  residual activity: 52%
[33]
  residual activity: 100%
[34]
  residual activity: 94%
[35]
  residual activity: 94%
[36]
  residual activity: 98%
[37]
  residual activity: 98%
[38]
  residual activity: 97%
[39]
  % Inhibition of Control Values (Mean n=2): -13.7%
[40]
  residual activity: 93%
[41]
  residual activity: 66%
[42]
  residual activity: 97%
[43]
  residual activity: 90%
[44]
  residual activity: 92%
[45]
  residual activity: 100%

Source: ChEMBL document CHEMBL4507261, “Data for DCP probe A-192621” (2021)
